This note sets out measurements from ChEMBL document CHEMBL4041507, “Design, synthesis and biological evaluation of [1,2,4]triazolo[1,5-a]pyrimidines as potent lysine specific demethylase 1 (LSD1/KDM1A) inhibitors” (Eur J Med Chem, 2017).

Calls of active or inactive are those of the source. The rule behind the calls is not given here.

Experiment [1] concerns the target Lysine-specific histone demethylase 1A (Homo sapiens, UniProt O60341).
Description: Inhibition of recombinant human LSD1 (157 to 852 residues) expressed in Escherichia coli BL21(DE3) using H3K4me2 as substrate preincubated for 1 hr followed by substrate addition by fluorescence assay
Experiment [2] deals with A549. Nature of the experiment: cells. The note with it: Homo sapiens.
Description: Cytotoxicity against human A549 cells assessed as growth inhibition by MTT assay
Experiment [3] concerns PC-9. In words: cells. As to conditions: Homo sapiens.
Description: Cytotoxicity against human PC9 cells assessed as growth inhibition by MTT assay
Experiment [4] concerns ECa-109 cell line. Nature of the experiment: cells. As to conditions: Homo sapiens.
Description: Cytotoxicity against human EC109 cells assessed as growth inhibition by MTT assay
Experiment [5] relates to PC-9. Nature of the experiment: cells. The note with it: Homo sapiens, PC-9, read-out: GI.
Description: Cytotoxicity against human PC9 cells assessed as growth inhibition at 10 uM by MTT assay relative to control
For experiment [6], the system named is A549. In words: cells. The note with it: Homo sapiens, A549, read-out: GI.
Description: Cytotoxicity against human A549 cells assessed as growth inhibition at 10 uM by MTT assay relative to control
Experiment [7] relates to ECa-109 cell line. In words: cells. As to conditions: Homo sapiens, ECa-109, read-out: GI.
Description: Cytotoxicity against human EC109 cells assessed as growth inhibition at 10 uM by MTT assay relative to control
The subject of experiment [8] is MGC-803. In words: cells. As to conditions: Homo sapiens, MGC-803, read-out: GI.
Description: Cytotoxicity against human MGC803 cells assessed as growth inhibition at 10 uM by MTT assay relative to control
Experiment [9] has as its system MGC-803. Nature of the experiment: cells. As to conditions: Homo sapiens.
Description: Cytotoxicity against human MGC803 cells assessed as growth inhibition by MTT assay
For experiment [10], the system named is PC-9. Nature of the experiment: Increase in E-cadherin expression in human PC9 cells at 5 to 10 uM after 24 hrs by Western blot method. The class given is functional, cell-based.
Experiment [11] relates to PC-9. In words: Decrease in N-cadherin expression in human PC9 cells at 5 to 10 uM after 24 hrs by Western blot method. The experiment is classed as functional, cell-based.
The subject of experiment [12] is MGC-803. Nature of the experiment: Anti-migratory activity against human MGC803 cells at 10 uM after 24 hrs by Hoechst 33258 staining based transwell assay relative to control. The experiment is classed as functional. The note with it: MGC-803, 24 h.
Experiment [13] relates to PC-9. Nature of the experiment: Anti-migratory activity against human PC9 cells after 24 hrs by Hoechst 33258 staining based transwell assay. The class given is functional, cell-based.
The test system of experiment [14] is MGC-803. In words: Anti-migratory activity against human MGC803 cells after 24 hrs by Hoechst 33258 staining based transwell assay. The class given is functional, cell-based.
The subject of experiment [15] is MGC-803. In words: Effect on N-cadherin expression in human MGC803 cells at 5 to 10 uM after 24 hrs by Western blot method. The class given is functional, cell-based.
The subject of experiment [16] is MGC-803. In words: Effect on E-cadherin expression in human MGC803 cells at 5 to 10 uM after 24 hrs by Western blot method. The class given is functional, cell-based. In general terms: A western blot detects proteins with antibodies after separation by electrophoresis.
For experiment [17], the system named is PC-9. In words: Potency index, ratio of 5-fluorouracil IC50 to compound IC50 for human PC9 cells. The experiment is classed as functional.

With `Cc1cc(Nc2ccc(C(=O)/C=C/c3cccs3)cc2)n2nc(SCc3nc4ccccc4[nH]3)nc2n1`, the half-maximal inhibitory concentration (IC50) in experiment [1] is over 10 µM; with A549 [2], 9.9 µM; with PC-9 [3], 11 µM; in the experiment on ECa-109 cell line [4], 10.6 µM; with MGC-803 [9], 7.88 µM. The inhibition of growth at 10 µM in the experiment on PC-9 [5] was found to be 40.4%; in the experiment with A549 [6], 51.1%; with ECa-109 cell line [7], 38.3%; in the experiment on MGC-803 [8], 29.6%.
`O=C(O)c1ccc(CN2CCC(CN[C@@H]3C[C@H]3c3ccccc3)CC2)cc1` [GSK2879552]: the IC50 in [1] is 0.024 µM; with ECa-109 cell line [4] it was over 50 µM; with MGC-803 [9] it was over 50 µM.
As for `O=c1[nH]cc(F)c(=O)[nH]1` [FLUOROURACIL], the IC50 in the experiment with A549 [2] worked out at 14 µM; with PC-9 [3] it was 1.99 µM; in the experiment on ECa-109 cell line [4], 26 µM; in the experiment with MGC-803 [9], 10.1 µM.
In the case of `Cc1cc(Nc2cccc3c2CN(C2CCC(=O)NC2=O)C3=O)n2nc(SCc3nc4ccccc4[nH]3)nc2n1` (stereo unspecified), the IC50 in [1] is over 10 µM; with A549 [2] it was 19.8 µM; in the experiment on PC-9 [3], 15 µM. The inhibition of growth at 10 µM in the experiment with PC-9 [5] was 52.4%; in the experiment with A549 [6], 48.2%; in the experiment with ECa-109 cell line [7] it was 32.2%; in the experiment on MGC-803 [8], 11.4%.
For the molecule `Cc1cc(NNC(=O)c2cnccn2)n2nc(SCc3nc4ccccc4[nH]3)nc2n1`, the IC50 was 0.557 µM in experiment [1], 10.3 µM in the experiment on A549 [2] and 12.3 µM with PC-9 [3]. Moreover, the inhibition of growth at 10 µM was found to be 52.5% with PC-9 [5], 65.2% with A549 [6], 35.5% in the experiment with ECa-109 cell line [7] and 8.6% with MGC-803 [8].
In the case of `Cc1cc(NNC(N)=S)n2nc(SCc3ccccc3)nc2n1`, the IC50 in [1] was 0.154 µM. Besides, the result in the experiment on PC-9 [10] and in the experiment with PC-9 [11] was Active. In addition, the inhibition at 10 µM in the experiment with MGC-803 [12] worked out at 21%. Further, the Activity result in the experiment with PC-9 [13] and in the experiment with MGC-803 [14] was “Dose-dependent effect” throughout. The inhibition of growth at 10 µM in the experiment on PC-9 [5] came to 30.7%; in the experiment with A549 [6] it was 25.6%; in the experiment with ECa-109 cell line [7] it was 14.2%; in the experiment on MGC-803 [8], 2.1%. Besides, the result in the experiment with MGC-803 [15] and in the experiment on MGC-803 [16] was inactive.
As for `CCC1(c2ccc(Nc3cc(C)nc4nc(SCc5nc6ccccc6[nH]5)nn34)cc2)CCC(=O)NC1=O` (stereo unspecified), the values for the IC50 (in experiment [1]; in the experiment on A549 [2]; in the experiment on PC-9 [3]) were over 10 µM, 17.5 µM and 12.2 µM, respectively. Further, the inhibition of growth at 10 µM in the experiment with PC-9 [5] was 47.9%; with A549 [6], 49.2%; in the experiment on ECa-109 cell line [7], 38.2%; in the experiment on MGC-803 [8] it was 1.1%.
Take `Cc1cc(NCCCO)n2nc(SCc3ccccc3)nc2n1`: the half-maximal inhibitory concentration (IC50) in experiment [1] is over 10 µM; with A549 [2] it was 8.85 µM; with PC-9 [3], 10.7 µM. In addition, the inhibition of growth at 10 µM with PC-9 [5] was determined as 51.4%; in the experiment with A549 [6] it was 53.7%; with ECa-109 cell line [7], 6.3%; with MGC-803 [8] it was 33.3%.
For the molecule `COc1cc(/C=C/C(=O)c2ccc(Nc3cc(C)nc4nc(SCc5nc6ccccc6[nH]5)nn34)cc2)cc(OC)c1OC`, the IC50 in experiment [1] is over 10 µM; in the experiment on A549 [2], 8.79 µM; with PC-9 [3], 0.57 µM; with ECa-109 cell line [4], 3.23 µM; in the experiment with MGC-803 [9], 2.46 µM. Also, the “Ratio IC50” value in the experiment on PC-9 [17] is given as 4. Besides, the inhibition of growth at 10 µM turned out to be 93.1% in the experiment with PC-9 [5], 71.6% in the experiment on A549 [6], 76.4% with ECa-109 cell line [7] and 81.3% in the experiment on MGC-803 [8].

In general, IC50 refers to the midpoint of a concentration-inhibition curve. Read a high IC50 as a need for much substance. As a reminder, the inhibition is the drop in the measured response relative to a control, in per cent. Read a low inhibition as little suppression.
